Our source for the IC50 values is ChEMBL document CHEMBL3044739, “Synthesis and cytotoxicity of novel N-sulfonyl-1,2,3,4-tetrahydroisoquinoline thiosemicarbazone derivatives” (Med Chem Res, 2013).

Values after ≈ are worked out from the molar mass of the structure shown. A value given as a limit tells only on which side of the number the result lay.

Type in all cases: functional, cell-based
One assay deals with MOLT-3. Briefly: Cytotoxicity against Homo sapiens (human) MOLT3 cells assessed as survival after 3 days by crystal violet staining. As to conditions: MOLT-3, 72 h.
The next assay deals with A549. The experiment in a line: Cytotoxicity against Homo sapiens (human) A549 cells assessed as survival after 3 days by crystal violet staining. As to conditions: A549, 72 h.
A short description of assay [1]: Cytotoxicity against Homo sapiens (human) HuCCa1 cells assessed as survival after 3 days by crystal violet staining. As to conditions: HuCC-A1, 72 h.
The subject of the next assay is HepG2. Briefly: Cytotoxicity against Homo sapiens (human) HepG2 cells assessed as survival after 3 days by crystal violet staining. As to conditions: HepG2, 72 h.

In the case of `COc1ccc(S(=O)(=O)N2CCc3cc(OC)c(OC)cc3C2/C(=N/NC(N)=S)c2ccccc2)cc1` (centres undefined), the IC50 with MOLT-3 is 10.4 µg/mL (≈ 19.3 µM); in the assay with A549, above 50 µg/mL; in assay [1], above 50 µg/mL; in the assay with HepG2, above 50 µg/mL.
Consider `COc1ccc(S(=O)(=O)N2CCc3ccccc3C2/C(=N/NC(N)=S)c2ccccc2)cc1` (centres undefined), for which the IC50 in the assay on MOLT-3 was 8.44 µg/mL (≈ 17.6 µM); with A549, above 50 µg/mL; in assay [1], above 50 µg/mL; in the assay on HepG2 it was above 50 µg/mL.
For the compound `C/C(=N\NC(N)=S)C1c2ccccc2CCN1S(=O)(=O)c1cccc([N+](=O)[O-])c1` (centres undefined), the IC50 in the assay on MOLT-3 was 18.1 µg/mL (≈ 41.7 µM); in the assay on A549, above 50 µg/mL; in assay [1], above 50 µg/mL; with HepG2, 38.5 µg/mL (≈ 88.8 µM).
On to `COc1ccc(S(=O)(=O)N2CCc3cc(OC)c(OC)cc3C2/C(C)=N/NC(N)=S)cc1` (centres undefined), for which the IC50 was 2.13 µg/mL (≈ 4.45 µM) with MOLT-3, above 50 µg/mL in the assay with A549, 31 µg/mL (≈ 64.8 µM) in assay [1] and 10.5 µg/mL (≈ 21.9 µM) with HepG2.
As to `Cc1ccc(S(=O)(=O)N2CCc3ccccc3C2/C(=N/NC(N)=S)c2ccccc2)cc1` (centres undefined), the IC50 was 7.85 µg/mL (≈ 16.9 µM) with MOLT-3, above 50 µg/mL with A549, above 50 µg/mL in assay [1] and above 50 µg/mL with HepG2.
`COc1cc2c(cc1OC)C(/C(=N/NC(N)=S)c1ccccc1)N(S(=O)(=O)c1ccc([N+](=O)[O-])cc1)CC2` (centres undefined): the IC50 (in the assay with MOLT-3; in the assay on A549; in assay [1]; with HepG2) was above 50 µg/mL each time.
Regarding `COc1cc([C@@H]2c3cc4c(cc3[C@@H](O[C@@H]3O[C@@H]5CO[C@@H](C)O[C@H]5[C@H](O)[C@H]3O)[C@H]3COC(=O)[C@H]23)OCO4)cc(OC)c1O` [ETOPOSIDE], the results for the IC50 with MOLT-3 and with HepG2 were 0.024 µg/mL (≈ 0.0408 µM) and 16 µg/mL (≈ 27.2 µM), respectively.
As to `NC(=S)N/N=C(\c1ccccc1)C1c2ccccc2CCN1S(=O)(=O)c1ccc([N+](=O)[O-])cc1` (centres undefined), the IC50 with MOLT-3 was 11.3 µg/mL (≈ 22.7 µM); with A549 it was above 50 µg/mL; in assay [1] it was above 50 µg/mL; in the assay with HepG2 it was above 50 µg/mL.
Consider `COc1cc2c(cc1OC)C(/C(=N/NC(N)=S)c1ccccc1)N(S(=O)(=O)c1ccc(C)cc1)CC2` (centres undefined), for which the IC50 with MOLT-3 was 8.45 µg/mL (≈ 16.1 µM); in the assay on A549 it was above 50 µg/mL; in assay [1], above 50 µg/mL; with HepG2, 21.5 µg/mL (≈ 41 µM).
Consider `COc1ccc(S(=O)(=O)N2CCc3ccccc3C2/C(C)=N/NC(N)=S)cc1` (centres undefined), for which the IC50 with MOLT-3 was 15.6 µg/mL (≈ 37.2 µM); in the assay with A549, above 50 µg/mL; in assay [1] it was above 50 µg/mL; in the assay on HepG2, 33.5 µg/mL (≈ 80 µM).
Take `C/C(=N\NC(N)=S)C1c2ccccc2CCN1S(=O)(=O)c1ccc([N+](=O)[O-])cc1` (centres undefined): the IC50 in the assay on MOLT-3 was 18.2 µg/mL (≈ 42.1 µM); with A549, above 50 µg/mL; in assay [1] it was above 50 µg/mL; in the assay on HepG2, 32.3 µg/mL (≈ 74.6 µM).
Consider `COc1cccc2c1C(=O)c1c(O)c3c(c(O)c1C2=O)C[C@@](O)(C(=O)CO)C[C@@H]3O[C@H]1C[C@H](N)[C@H](O)[C@H](C)O1` [DOXORUBICIN], for which the IC50 with A549 stood at 0.38 µg/mL (≈ 0.699 µM); in assay [1], 0.35 µg/mL (≈ 0.644 µM); in the assay with HepG2, 0.23 µg/mL (≈ 0.423 µM).
For the compound `COc1cc2c(cc1OC)C(/C(C)=N/NC(N)=S)N(S(=O)(=O)c1ccc(C)cc1)CC2` (centres undefined), the IC50 (in the assay with MOLT-3; with A549; in assay [1]; with HepG2) was above 50 µg/mL in each case.
With `C/C(=N\NC(N)=S)C1c2ccccc2CCN1S(=O)(=O)c1ccc(C)cc1` (centres undefined), the IC50 with MOLT-3 is 19 µg/mL (≈ 47.2 µM); in the assay on A549, above 50 µg/mL; in assay [1] it was above 50 µg/mL; with HepG2, 46 µg/mL (≈ 114 µM).
On to `COc1cc2c(cc1OC)C(C(=O)c1ccccc1)N(S(=O)(=O)c1ccc(C)cc1)CC2` (centres undefined), for which the IC50 (in the assay with MOLT-3; with A549; in assay [1]; with HepG2) was above 50 µg/mL throughout.
Consider `COc1cc2c(cc1OC)C(/C(C)=N/NC(N)=S)N(S(=O)(=O)c1ccc([N+](=O)[O-])cc1)CC2` (centres undefined), for which the IC50 in the assay with MOLT-3 was 42.3 µg/mL (≈ 85.7 µM); in the assay on A549, above 50 µg/mL; in assay [1], above 50 µg/mL; in the assay with HepG2, above 50 µg/mL.
`NC(=S)N/N=C(/c1ccccc1)c1nccc2ccccc12`: the IC50 was 0.72 µg/mL (≈ 2.35 µM) with MOLT-3, 30 µg/mL (≈ 97.9 µM) in the assay with A549, 35 µg/mL (≈ 114 µM) in assay [1] and 16 µg/mL (≈ 52.2 µM) in the assay with HepG2.
The corresponding values for `COc1cc2c(cc1OC)C(/C(=N/NC(N)=S)c1ccccc1)N(S(=O)(=O)c1ccc(Cl)cc1)CC2` (centres undefined) are 5.03 µg/mL (≈ 9.23 µM), above 50 µg/mL, above 50 µg/mL and above 50 µg/mL.
